Converted amounts (≈) assume the structure as drawn. Where two headings read alike, the source gives them in different places.
What was measured:
[1] = system: M. tuberculosis transformed with luxABCDE; experiment: microbe, parasite or virus in culture; assay type: cell-based, Mycobacterium tuberculosis; details: for MBC / MIC90: Mycobacterium tuberculosis, 168 h
[2] = system: non-replicating cultures of M. tuberculosis H37Rv transformed with lux ABCDE; experiment: microbe, parasite or virus in culture; assay type: cell-based, Mycobacterium tuberculosis; details: for MIC / MIC90: ≥90% reduction in luminescence, read-out: MIC90 LORA; for MIC90 LORA/MABA: ratio of LORA MIC90 to MABA MIC90
[3] = […], ≥99% reduction in luminescence, read-out: MBC99 Day 7 (Lux Assay) MBC
[4] = day 7 of time-kill study, read-out: MBC99
[5] = Mycobacterium tuberculosis, H37RV

| SMILES | MBC99 Day 7 (Lux Assay) MBC Rel to RMP [1] | MBC [1, 3] [µM] | MIC90 ([1]; day 7 of time-kill study) [µM] | MBC [1, 4] [µM] | MIC90 LORA Rel to RMP [2] | MIC [2, 5] [µM] | MIC90 LORA/MABA [2] | also measured |
| --- | --- | --- | --- | --- | --- | --- | --- | --- |
| CO[C@H]1/C=C/O[C@@]2(C)Oc3c(C)c(O)c4c(=O)c(c5oc6cc(N7CCN(CC(C)C)CC7)cc(OCc7ccc(CN8CCOCC8)cc7)c6nc-5c4c3C2=O)NC(=O)/C(C)=C\C=C\[C@H](C)[C@H](O)[C@@H](C)[C@@H](O)[C@@H](C)[C@H](OC(C)=O)[C@@H]1C [Compound 17e, (7S,9E,11S,12R,13S,14R,15R,16R,17S,18S,19E,21Z)-2,15,17-Trihydroxy-11-methoxy-3,7,12,14,16,18,22-heptamethyl-30-[4-(2-methylpropyl)piperazin-1-yl]-32-({4-[(morpholin-4-yl)methyl]phenyl}methoxy)-6,23,37-trioxo-8,27,38-trioxa-24,34-diazahexacyclo[23.11.1.1^4,7.0^5,36.0^26,35.0^28,33]octatriaconta-1(36)2,4,9,19,21,25,28,30,32,34-undecaen-13-yl acetate] | 0.20 | 0.093 | 0.009 | 0.093 | 0.11 | 0.0094 | 1.9 | more potent than RMP in terms of day 7 MBC ([1]; day 7): approximately 10 fold |
| CO[C@H]1/C=C/O[C@@]2(C)Oc3c(C)c(O)c4c(=O)c(c5oc6cccc(OCCCCN7CCN(C(=O)CN8CCOCC8)CC7)c6nc-5c4c3C2=O)NC(=O)/C(C)=C\C=C\[C@H](C)[C@H](O)[C@@H](C)[C@@H](O)[C@@H](C)[C@H](OC(C)=O)[C@@H]1C [Compound 5e, (7S,9E,11S,12R,13S,14R,15R,16R,17S,18S,19E,21Z)-2,15,17-Trihydroxy-11-methoxy-3,7,12,14,16,18,22-heptamethyl-32-(4-{4-[2-(morpholin-4-yl)acetyl]piperazin-1-yl}butoxy)-6,23,37-trioxo-8,27,38-trioxa-24,34-diazahexacyclo[23.11.1.1^4,7.0^5,36.0^26,35.0^28,33]octatriaconta-1(36)2,4,9,19,21,25,28(33)29,31,34-undecaen-13-yl acetate] | 0.09 | 0.04 | – | – | 0.27 | 0.047 | 0.57 | – |
| NNC(=O)c1ccncc1 [Isoniazid, isoniazid, reference compound] | – | – | 0.409 (≈ 0.0561 µg/mL) | 3.59 (≈ 0.492 µg/mL) | – | – | – | – |
| CO[C@H]1/C=C/O[C@@]2(C)Oc3c(C)c(O)c4c(=O)c(c5oc6cccc(OCc7ccc(CN8CCN(C(=O)CN9CCOCC9)CC8)cc7)c6nc-5c4c3C2=O)NC(=O)/C(C)=C\C=C\[C@H](C)[C@H](O)[C@@H](C)[C@@H](O)[C@@H](C)[C@H](OC(C)=O)[C@@H]1C [Compound 16c, (7S,9E,11S,12R,13S,14R,15R,16R,17S,18S,19E,21Z)-2,15,17-Trihydroxy-11-methoxy-3,7,12,14,16,18,22-heptamethyl-32-{[4-({4-[2-(morpholin-4-yl)acetyl]piperazin-1-yl}methyl)phenyl]methoxy}-6,23,37-trioxo-8,27,38-trioxa-24,34-diazahexacyclo[23.11.1.1^4,7.0^5,36.0^26,35.0^28,33]octatriaconta-1(36)2,4,9,19,21,25,28,30,32,34-undecaen-13-yl acetate] | 0.08 | 0.061 | – | – | – | – | – | – |
| COc1nc2ccc(Br)cc2cc1[C@@H](c1ccccc1)[C@@](O)(CCN(C)C)c1cccc2ccccc12 [Bedaquiline] | – | – | 0.031 (≈ 0.0172 µg/mL) | 0.124 (≈ 0.0689 µg/mL) | – | – | – | – |
| O=[N+]([O-])c1cn2c(n1)OC[C@@H](OCc1ccc(OC(F)(F)F)cc1)C2 [Pretomanid, pretomanid, reference compound] | – | – | 0.47 (≈ 0.169 µg/mL) | 0.597 (≈ 0.214 µg/mL) | – | – | – | – |
| CO[C@H]1/C=C/O[C@@]2(C)Oc3c(C)c(O)c4c(=O)c(c5oc6cc(C)cc(N7CCN(C(=O)c8cccc(-c9ccccn9)c8)CC7)c6nc-5c4c3C2=O)NC(=O)/C(C)=C\C=C\[C@H](C)[C@H](O)[C@@H](C)[C@@H](O)[C@@H](C)[C@H](OC(C)=O)[C@@H]1C [Compound 30g, (7S,9E,11S,12R,13S,14R,15R,16R,17S,18S,19E,21Z)-2,15,17-Trihydroxy-11-methoxy-3,7,12,14,16,18,22,30-octamethyl-6,23,37-trioxo-32-{4-[3-(pyridin-2-yl)benzoyl]piperazin-1-yl}-8,27,38-trioxa-24,34-diazahexacyclo[23.11.1.1^4,7.0^5,36.0^26,35.0^28,33]octatriaconta-1(36)2,4,9,19,21,25,28,30,32,34-undecaen-13-yl acetate] | – | – | – | – | 0.16 | – | 1.2 | MIC90 [2, 5]: 0.032 µM |
| CO[C@H]1/C=C/O[C@@]2(C)Oc3c(C)c(O)c4c(=O)c(c5oc6cc(C)cc(N7CCN(C(=O)c8ccc9occc9c8)CC7)c6nc-5c4c3C2=O)NC(=O)/C(C)=C\C=C\[C@H](C)[C@H](O)[C@@H](C)[C@@H](O)[C@@H](C)[C@H](OC(C)=O)[C@@H]1C [Compound 30h, (7S,9E,11S,12R,13S,14R,15R,16R,17S,18S,19E,21Z)-32-[4-(1-Benzofuran-5-carbonyl)piperazin-1-yl]-2,15,17-trihydroxy-11-methoxy-3,7,12,14,16,18,22,30-octamethyl-6,23,37-trioxo-8,27,38-trioxa-24,34-diazahexacyclo[23.11.1.1^4,7.0^5,36.0^26,35.0^28,33]octatriaconta-1(36)2,4,9,19,21,25,28,30,32,34-undecaen-13-yl acetate] | – | – | – | – | 0.20 | – | 2.2 | MIC90 [2, 5]: 0.042 µM |
| CO[C@H]1/C=C/O[C@@]2(C)Oc3c(C)c(O)c4c(=O)c(c5oc6cc(N7CCN(CC(C)C)CC7)cc(N7CCN(CC(C)C)CC7)c6nc-5c4c3C2=O)NC(=O)/C(C)=C\C=C\[C@H](C)[C@H](O)[C@@H](C)[C@@H](O)[C@@H](C)[C@H](OC(C)=O)[C@@H]1C [Compound 17u, 7S,9E,11S,12R,13S,14R,15R,16R,17S,18S,19E,21Z)-2,15,17-trihydroxy-11-methoxy-3,7,12,14,16,18,22-heptamethyl-30,32-bis[4-(2-methylpropyl)piperazin-1-yl]-6,23,37-trioxo-8,27,38-trioxa-24,34-diazahexacyclo[23.11.1.1^4,7.0^5,36.0^26,35.0^28,33]octatriaconta-1,3,5(36)9,19,21,25,28,30,32,34-undecaen-13-yl acetate] | 0.05 | 0.025 | – | – | – | – | – | – |
| CO[C@H]1/C=C/O[C@@]2(C)Oc3c(C)c(O)c4c(=O)c(c5oc6cc(N7CCN(CC(C)C)CC7)cc(OCCCCN7CCN(C(=O)Cn8ccnc8)CC7)c6nc-5c4c3C2=O)NC(=O)/C(C)=C\C=C\[C@H](C)[C@H](O)[C@@H](C)[C@@H](O)[C@@H](C)[C@H](OC(C)=O)[C@@H]1C [Compound 6d, (7S,9E,11S,12R,13S,14R,15R,16R,17S,18S,19E,21Z)-2,15,17-Trihydroxy-32-(4-{4-[2-(1H-imidazol-1-yl)acetyl]piperazin-1-yl}butoxy)-11-methoxy-3,7,12,14,16,18,22-heptamethyl-30-[4-(2-methylpropyl)piperazin-1-yl]-6,23,37-trioxo-8,27,38-trioxa-24,34-diazahexacyclo[23.11.1.1^4,7.0^5,36.0^26,35.0^28,33]octatriaconta-1(36)2,4,9,19,21,25,28,30,32,34-undecaen-13-yl acetate] | – | – | – | – | 0.06 | 0.058 | 2.4 | – |
| CO[C@H]1/C=C/O[C@@]2(C)Oc3c(C)c(O)c4c(=O)c(c5oc6cc(C=O)cc(N7CCN(CC(C)C)CC7)c6nc-5c4c3C2=O)NC(=O)/C(C)=C\C=C\[C@H](C)[C@H](O)[C@@H](C)[C@@H](O)[C@@H](C)[C@H](OC(C)=O)[C@@H]1C [Compound 30d, (7S,9E,11S,12R,13S,14R,15R,16R,17S,1S,19E,21Z)-30-Formyl-2,15,17-trihydroxy-11-methoxy-3,7,12,14,16,18,22-heptamethyl-32-[4-(2-methylpropyl)piperazin-1-yl]-6,23,37-trioxo-8,27,38-trioxa-24,34-diazahexacyclo[23.11.1.1^4,7.0^5,36.0^26,35.0^28,33]octatriaconta-1(36)2,4,9,19,21,25,28,30,32,34-undecaen-13-yl acetate] | – | – | – | – | 0.07 | – | – | MIC90 [2]: 0.017 µM |
| CO[C@H]1/C=C/O[C@@]2(C)Oc3c(C)c(O)c4c(=O)c(c5oc6cc(C=Nc7ccc(N8CCOCC8)cc7)cc(N7CCN(C)CC7)c6nc-5c4c3C2=O)NC(=O)/C(C)=C\C=C\[C@H](C)[C@H](O)[C@@H](C)[C@@H](O)[C@@H](C)[C@H](OC(C)=O)[C@@H]1C [Compound 32, (7S,9E,11S,12R,13S,14R,15R,16R,17S,18S,19E,21Z)-2,15,17-trihydroxy-11-methoxy-3,7,12,14,16,18,22-heptamethyl-32-(4-methylpiperazin-1-yl)-30-{N-[4-(morpholin-4-yl)phenyl]carboximidoyl}-6,23,37-trioxo-8,27,38-trioxa-24,34-diazahexacyclo[23.11.1.1^4,7.0^5,36.0^26,35.0^28,33]octatriaconta-1,3,5(36)9,19,21,25,28,30,32,34-undecaen-13-yl acetate] | – | – | – | – | 0.45 | – | 2.5 | MIC90 [2, 5]: 0.118 µM |
| CO[C@H]1/C=C/O[C@@]2(C)Oc3c(C)c(O)c4c(=O)c(c5oc6cccc(OCCCCN7CCN(C(=O)OC(C)(C)C)CC7)c6nc-5c4c3C2=O)NC(=O)/C(C)=C\C=C\[C@H](C)[C@H](O)[C@@H](C)[C@@H](O)[C@@H](C)[C@H](OC(C)=O)[C@@H]1C [Compound 5c, Tert-Butyl 4-(4-{[(7S,9E,11S,12R,13S,14R,15R,16R,17S,18S,19E,21Z)-13-(acetyloxy)-2,15,17-trihydroxy-11-methoxy-3,7,12,14,16,18,22-heptamethyl-6,23,37-trioxo-8,27,38-trioxa-24,34-diazahexacyclo[23.11.1.1^4,7.0^5,36.0^26,35.0^28,33]octatriaconta-1(36)2,4,9,19,21,25,28(33)29,31,34-undecaen-32-yl]oxy}butyl)piperazine-1-carboxylate] | – | – | – | – | 0.22 | 0.058 (≈ 0.0604 µg/mL) | 2.4 | – |

Reference: patent publication US20250188092A1, “RIFAMYCIN ANALOGS” (THE REGENTS OF THE UNIVERSITY OF MICHIGAN, priority 2021, published 2025)
